Reference: PubChem BioAssay AID330 (DTP/NCI, 2004)
Where “and” joins values, the source holds several entries; their conditions need not be identical. Equal entries are not always repeated. Toxic doses and inconclusive results are not listed.

System: P388 leukemia ip, CD2F1 mice, survival T/C
Test: NCI In Vivo Anticancer Drug Screen. Data for tumor model P388 Leukemia (intraperitoneal) in CD2F1 (CDF1) mice
Settings: endpoint: median survival time, higher = longer survival
Summary of the method: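 Mice carrying the transplanted tumor received test compound or vehicle. Survival was recorded in each group, and the value is the treated-group measurement divided by that of the vehicle-treated control group.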

[1] = dose: 25.0 mg/kg/injection, schedule: Q01DX009 (ip), vehicle: saline with Tween-80
[2] = dose: 50.0 mg/kg/injection, schedule: Q01DX009 (ip), vehicle: saline with Tween-80
[3] = dose: 100.0 mg/kg/injection, schedule: Q01DX009 (ip), vehicle: saline with Tween-80
[4] = dose: 200.0 mg/kg/injection, schedule: Q01DX009 (ip), vehicle: saline with Tween-80
[5] = dose: 50.0 mg/kg/injection, schedule: Q01DX005 (ip), vehicle: saline with Tween-80
[6] = dose: 100.0 mg/kg/injection, schedule: Q01DX005 (ip), vehicle: saline with Tween-80
[7] = dose: 200.0 mg/kg/injection, schedule: Q01DX005 (ip), vehicle: saline with Tween-80
[8] = dose: 100.0 mg/kg/injection, schedule: Q01DX009 (ip), vehicle: saline
[9] = dose: 50.0 mg/kg/injection, schedule: Q01DX009 (ip), vehicle: saline
[10] = dose: 200.0 mg/kg/injection, schedule: Q01DX009 (ip), vehicle: saline

For `Cc1cc(NN=O)nc(C)c1C#N`, the T/C (dose: 3.12 mg/kg/injection, schedule: Q01DX009 (ip), vehicle: water) was 109 % of control, the T/C (dose: 6.25 mg/kg/injection, schedule: Q01DX009 (ip), vehicle: water) was 123 % of control and the T/C (dose: 12.5 mg/kg/injection, schedule: Q01DX009 (ip), vehicle: water) was 116 % of control. For the same compound, the T/C (dose: 25.0 mg/kg/injection, schedule: Q01DX009 (ip), vehicle: water) was 150 % of control and 151 % of control, the T/C (dose: 50.0 mg/kg/injection, schedule: Q01DX009 (ip), vehicle: water) was 178 % of control and 190 % of control and the T/C (dose: 100.0 mg/kg/injection, schedule: Q01DX009 (ip), vehicle: water) was 178 % of control.
`COc1nc(N)c([N+](=O)[O-])c(C(Br)Br)n1` was tested, and the T/C (dose: 6.25 mg/kg/injection, schedule: Q01DX005 (ip), vehicle: Klucel (hydroxypropylcellulose) (HPC)) was 104 % of control, the T/C (dose: 12.5 mg/kg/injection, schedule: Q01DX005 (ip), vehicle: Klucel (hydroxypropylcellulose) (HPC)) was 100 % of control and the T/C (dose: 25.0 mg/kg/injection, schedule: Q01DX005 (ip), vehicle: Klucel (hydroxypropylcellulose) (HPC)) was 91 % of control.
In the case of `CC1(C)CNC(=S)N1Cc1ccccc1`, the T/C (dose: 50.0 mg/kg/injection, schedule: Q01DX009 (ip), vehicle: suspension in saline) is reported as 100 % of control, the T/C (dose: 100.0 mg/kg/injection, schedule: Q01DX009 (ip), vehicle: suspension in saline) is reported as 94 % of control and the T/C (dose: 200.0 mg/kg/injection, schedule: Q01DX009 (ip), vehicle: suspension in saline) is reported as 100 % of control.
With `CCSC(=S)Nc1nc2ccc(C)cc2s1` the T/C (dose: 6.25 mg/kg/injection, schedule: Q01DX009 (ip), vehicle: Klucel (hydroxypropylcellulose) (HPC)) was 107 % of control, the T/C (dose: 12.5 mg/kg/injection, schedule: Q01DX009 (ip), vehicle: Klucel (hydroxypropylcellulose) (HPC)) was 89 % of control and the T/C (dose: 25.0 mg/kg/injection, schedule: Q01DX009 (ip), vehicle: Klucel (hydroxypropylcellulose) (HPC)) was 103 % of control.
For `CCOC(=O)C(NC(=O)C(Cc1ccc(N(CCCl)CCCl)cc1)NC(C)=O)C(C)C` (stereo not drawn), the T/C (dose: 3.13 mg/kg/injection, schedule: Q04DX003 (ip), vehicle: saline) was 100 % of control, the T/C (dose: 6.25 mg/kg/injection, schedule: Q04DX003 (ip), vehicle: saline) was 109 % of control and the T/C (dose: 12.5 mg/kg/injection, schedule: Q04DX003 (ip), vehicle: saline) was 118 % of control. The T/C [1] was 160 % of control, the T/C [2] was 180 % of control and the T/C (dose: 50.0 mg/kg/injection, schedule: Q04DX003 (ip), vehicle: saline with Tween-80) was 159 % of control. For the same compound, the T/C [3] was 245 % of control, the T/C (dose: 100.0 mg/kg/injection, schedule: Q04DX003 (ip), vehicle: saline with Tween-80) was 163 % of control and 175 % of control and the T/C (dose: 150.0 mg/kg/injection, schedule: Q04DX003 (ip), vehicle: other) was 151 % of control. For the same compound, the T/C (dose: 160.0 mg/kg/injection, schedule: Q04DX003 (ip), vehicle: other) was 161 % of control, the T/C (dose: 200.0 mg/kg/injection, schedule: Q04DX003 (ip), vehicle: saline with Tween-80) was 154 % of control and the T/C (dose: 300.0 mg/kg/injection, schedule: Q04DX003 (ip), vehicle: other) was 174 % of control. For the same compound, the T/C (dose: 400.0 mg/kg/injection, schedule: Q04DX003 (ip), vehicle: other) was 159 % of control.
In the case of `OC1c2ccccc2-c2nc3ccccc3cc21` (stereo not drawn), the T/C (dose: 50.0 mg/kg/injection, schedule: Q01DX005 (ip), vehicle: Klucel (hydroxypropylcellulose) (HPC)) is reported as 110 % of control and 92 % of control, the T/C (dose: 100.0 mg/kg/injection, schedule: Q01DX005 (ip), vehicle: Klucel (hydroxypropylcellulose) (HPC)) is reported as 102 % of control and 86 % of control and the T/C (dose: 200.0 mg/kg/injection, schedule: Q01DX005 (ip), vehicle: Klucel (hydroxypropylcellulose) (HPC)) is reported as 107 % of control.
In the case of `O=C(O)c1nnn(-c2ccccc2)n1`, the T/C (dose: 50.0 mg/kg/injection, schedule: Q01DX005 (ip), vehicle: saline) is reported as 101 % of control, the T/C (dose: 100.0 mg/kg/injection, schedule: Q01DX005 (ip), vehicle: saline) is reported as 101 % of control and the T/C (dose: 200.0 mg/kg/injection, schedule: Q01DX005 (ip), vehicle: saline) is reported as 106 % of control.
`C=C1N(C)c2ccccc2C1(C)C` was tested, and the T/C (dose: 4.0 mg/kg/injection, schedule: Q01DX009 (ip), vehicle: saline with Tween-80) was 113 % of control, the T/C (dose: 5.9 mg/kg/injection, schedule: Q01DX009 (ip), vehicle: saline with Tween-80) was 123 % of control and the T/C (dose: 9.0 mg/kg/injection, schedule: Q01DX009 (ip), vehicle: saline with Tween-80) was 110 % of control. For the same compound, the T/C (dose: 13.0 mg/kg/injection, schedule: Q01DX009 (ip), vehicle: saline with Tween-80) was 108 % of control and 118 % of control, the T/C (dose: 19.0 mg/kg/injection, schedule: Q01DX009 (ip), vehicle: saline with Tween-80) was 106 % of control and the T/C (dose: 29.0 mg/kg/injection, schedule: Q01DX009 (ip), vehicle: saline with Tween-80) was 109 % of control. For the same compound, the T/C (dose: 45.0 mg/kg/injection, schedule: Q01DX009 (ip), vehicle: saline with Tween-80) was 115 % of control.
In the case of `CC1(C)C/C(=C2\COC(=O)C2=O)NN1c1ccccc1`, the T/C [2] is reported as 106 % of control, the T/C [3] is reported as 99 % of control and the T/C [4] is reported as 105 % of control.
For `Cc1n[nH]c(=S)n1C`, the T/C (dose: 43.75 mg/kg/injection, schedule: Q04DX003 (ip), vehicle: saline sonified) was 95 % of control, the T/C (dose: 87.5 mg/kg/injection, schedule: Q04DX003 (ip), vehicle: saline sonified) was 100 % of control and the T/C (dose: 175.0 mg/kg/injection, schedule: Q04DX003 (ip), vehicle: saline sonified) was 90 % of control.
With `Cc1ccc(Nc2ncnc3c2c(=O)n(C)c(=O)n3C)cc1C` the T/C (dose: 12.5 mg/kg/injection, schedule: Q01DX005 (ip), vehicle: saline with Tween-80) was 100 % of control, the T/C (dose: 25.0 mg/kg/injection, schedule: Q01DX005 (ip), vehicle: saline with Tween-80) was 100 % of control and the T/C [5] was 86 % of control and 91 % of control. The T/C [6] was 88 % of control and the T/C [7] was 96 % of control.
With `O=C(CC(=O)N1CCN(c2ccccc2)CC1)N1CCN(c2ccccc2)CC1` the T/C [1] was 95 % of control, the T/C [2] was 97 % of control and the T/C [3] was 98 % of control. For the same compound, the T/C [8] was 93 % of control.
With `COc1ccc(C(=O)C(CN2CCCC2)CN2CCCC2)cc1` the T/C (dose: 7.5 mg/kg/injection, schedule: Q01DX005 (ip), vehicle: saline) was 111 % of control, the T/C (dose: 7.5 mg/kg/injection, schedule: Q01DX009 (ip), vehicle: saline) was 112 % of control and the T/C (dose: 15.0 mg/kg/injection, schedule: Q01DX004 (ip), vehicle: saline) was 122 % of control. For the same compound, the T/C (dose: 15.0 mg/kg/injection, schedule: Q01DX005 (ip), vehicle: saline) was 121 % of control, the T/C (dose: 15.0 mg/kg/injection, schedule: Q01DX009 (ip), vehicle: saline) was 123 % of control and the T/C (dose: 30.0 mg/kg/injection, schedule: Q01DX004 (ip), vehicle: saline) was 115 % of control. For the same compound, the T/C (dose: 60.0 mg/kg/injection, schedule: Q01DX004 (ip), vehicle: saline) was 108 % of control.
`CN1C(=O)C2N(C(=O)C1(C)S)c1ccccc1C2(C)C` (stereo not drawn) was tested, and the T/C [9] was 102 % of control, the T/C [8] was 93 % of control and the T/C [10] was 101 % of control.
In the case of `O=c1nc(-c2ccccc2)cc(CCc2ccccc2)[nH]1`, the T/C [5] is reported as 90 % of control, the T/C [6] is reported as 89 % of control and the T/C [7] is reported as 102 % of control.
In the case of `O=C1CC(O)(c2ccccc2)CCS1` (stereo not drawn), the T/C (dose: 100.0 mg/kg/injection, schedule: Q04DX003 (ip), vehicle: Klucel (hydroxypropylcellulose) (HPC)) is reported as 99 % of control, the T/C (dose: 200.0 mg/kg/injection, schedule: Q04DX003 (ip), vehicle: Klucel (hydroxypropylcellulose) (HPC)) is reported as 107 % of control and the T/C (dose: 400.0 mg/kg/injection, schedule: Q04DX003 (ip), vehicle: Klucel (hydroxypropylcellulose) (HPC)) is reported as 106 % of control.
`COc1ccc(Cc2cc3c(cc2OCC(=O)O)OCO3)cc1` was tested, and the T/C [5] was 97 % of control, the T/C [6] was 100 % of control and the T/C [7] was 93 % of control.
With `O=C(N=C(N=C(c1ccccc1)N1CCCCC1)c1ccccc1)c1ccccc1` the T/C [2] was 96 % of control, the T/C [3] was 93 % of control and the T/C [4] was 95 % of control.
For `O=CNC(NC=O)NC=O`, the T/C (dose: 25.0 mg/kg/injection, schedule: Q01DX009 (ip), vehicle: saline) was 109 % of control, the T/C [9] was 97 % of control and the T/C [8] was 105 % of control. For the same compound, the T/C [10] was 104 % of control.
`CC(C)(CC#N)c1cc(CC(C)(C)C2(C)OCCO2)no1` was tested, and the T/C [5] was 104 % of control, the T/C [6] was 98 % of control and the T/C [7] was 92 % of control.
`CSc1nnc2n(N)cnn12` was tested, and the T/C (dose: 100.0 mg/kg/injection, schedule: Q04DX002 (ip), vehicle: water) was 107 % of control, the T/C (dose: 200.0 mg/kg/injection, schedule: Q04DX002 (ip), vehicle: water) was 106 % of control and the T/C (dose: 400.0 mg/kg/injection, schedule: Q04DX002 (ip), vehicle: water) was 106 % of control.
